Experimental data taken from patent US20240360137A1 (Novartis AG, priority 2023, published 2024).

Key:
Assay in all cases: CDKi biochemical assay (TR-FRET, phosphorylation of S780 on RB1 peptide)
CDK1/CyclinB1 = CDK1/CyclinB1 (Homo sapiens, UniProt P06493); conditions: CDK1/CyclinB1 10 pM, 1 mM ATP, 60 min at 25° C.
Summary of the method: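 CDK1/CyclinB1 (10 pM, Avi-tagged, insect-cell expressed) phosphorylated S780 of His-MBP-RB1[773-924] (200 nM) with 1 mM ATP in HEPES pH 7.5, 10 mM MgCl2, 1 mM DTT, 60 min at 25 °C. After EDTA quench, TR-FRET detection (Eu anti-pRB S780, SA-APC) for 3 h; apparent IC50 from percent activity versus log concentration.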

CDK2/CyclinE1 = CDK2/CyclinE1 (Homo sapiens, UniProt P24941); conditions: CDK2/CyclinE1 100 pM, 1 mM ATP, 60 min at 25° C.
Summary of the method: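 CDK2/CyclinE1 (Avi-tag, 100 pM; CDK2 E. coli-expressed) phosphorylated His-MBP-RB1[773-924] (200 nM) at S780 with 1 mM ATP in HEPES pH 7.5/MgCl2/DTT, 60 min at 25° C. After EDTA quench, TR-FRET detection ran 3 h (Eu anti-p-RB S780, SA-APC). Apparent IC50 came from percent activity versus log concentration.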

CDK6/cyclinD3 = CDK6/cyclinD3 (Homo sapiens, UniProt Q00534); conditions: CDK6/cyclinD3 10 pM, 1 mM ATP, 60 min at 25° C.
Summary of the method: (§1)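 Avi-tagged, biotinylated CDK4/cyclinD1 (20 pM) or CDK6/cyclinD3 (10 pM) phosphorylates 200 nM His-MBP-RB1[773-924] at S780 with 1 mM ATP in HEPES pH 7.5/MgCl2, 60 min, 25° C. After EDTA quench, Eu anti-pRB(S780)/SA-APC TR-FRET is read after 3 h. Apparent IC50 comes from % activity versus log concentration.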

CDK4/cyclinD1 = CDK4/cyclinD1 (Homo sapiens, UniProt P11802); conditions: CDK4/cyclinD1 20 pM, 1 mM ATP, 60 min at 25° C.
Summary of the method: as §1

Structure (SMILES)	IC50 (CDK1/CyclinB1) [µM]	IC50 (CDK2/CyclinE1) [µM]	IC50 (CDK6/cyclinD3) [µM]	IC50 (CDK4/cyclinD1) [µM]
C[C@]1(O)C[C@H](COc2n[nH]cc2Nc2ncc3c(n2)N([C@@H]2CCC[C@@H](O)C2)C(=O)C32CC2)C1 [Example 65, 2′-((3-(((1r,3R)-3-hydroxy-3-methylcyclobutyl)methoxy)-1H-pyrazol-4-yl)amino)-7′-((1R,3R)-3-hydroxycyclohexyl)spiro[cyclopropane-1,5′-pyrrolo[2,3-d]pyrimidin]-6′(7′H)-one]	4.49	0.053	≥ 10	6.9
O=C1N([C@@H]2CCC[C@@H](O)C2)c2nc(Nc3c[nH]nc3OC[C@H]3COCCO3)ncc2C12CC2 [Example 66, 2′-((3-(((R)-1,4-dioxan-2-yl)methoxy)-1H-pyrazol-4-yl)amino)-7′-((1R,3R)-3-hydroxycyclohexyl)spiro[cyclopropane-1,5′-pyrrolo[2,3-d]pyrimidin]-6′(7′H)-one]	4.22	0.051	≥ 10	≥ 10
N#CC1(COc2n[nH]cc2Nc2ncc3c(n2)N([C@@H]2CCC[C@@H](O)C2)C(=O)C32CC2)CC1 [Example 67, 1-(((4-((7′-((1R,3R)-3-hydroxycyclohexyl)-6′-oxo-6′,7′-dihydrospiro[cyclopropane-1,5′-pyrrolo[2,3-d]pyrimidin]-2′-yl)amino)-1H-pyrazol-3-yl)oxy)methyl)cyclopropane-1-carbonitrile]	4.13	0.023	≥ 10	6.91
CSCc1n[nH]cc1Nc1ncc2c(n1)N([C@@H]1CCC[C@@H](O)C1)C(=O)C21CC1 [Example 68, 7′-((1R,3R)-3-hydroxycyclohexyl)-2′-((3-((methylthio)methyl)-1H-pyrazol-4-yl)amino)spiro[cyclopropane-1,5′-pyrrolo[2,3-d]pyrimidin]-6′(7′H)-one]	0.97	0.007	7.6	4.15
O=C1N([C@@H]2CCC[C@@H](O)C2)c2nc(Nc3c[nH]nc3O[C@H]3CC3(F)F)ncc2C12CC2 [Example 69]	0.8	0.006	6.03	2.61
O=C1N([C@@H]2CCC[C@@H](O)C2)c2nc(Nc3c[nH]nc3O[C@@H]3CC3(F)F)ncc2C12CC2 [Example 70, 2′-((3-((R)-2,2-difluorocyclopropoxy)-1H-pyrazol-4-yl)amino)-7′-((1R,3R)-3-hydroxycyclohexyl)spiro[cyclopropane-1,5′-pyrrolo[2,3-d]pyrimidin]-6′(7′H)-one]	0.82	0.006	≥ 10	7.69
O=C1N([C@@H]2CCC[C@@H](O)C2)c2nc(Nc3c[nH]nc3OC[C@@H]3CCOC3)ncc2C12CC2 [Example 71, 7′-((1R,3R)-3-hydroxycyclohexyl)-2′-((3-(((R)-tetrahydrofuran-3-yl)methoxy)-1H-pyrazol-4-yl)amino)spiro[cyclopropane-1,5′-pyrrolo[2,3-d]pyrimidin]-6′(7′H)-one]	7.59	0.044	≥ 10	≥ 10
O=C1N([C@@H]2CCC[C@@H](O)C2)c2nc(Nc3c[nH]nc3OC[C@H]3CCOC3)ncc2C12CC2 [Example 72, 7′-((1R,3R)-3-hydroxycyclohexyl)-2′-((3-(((S)-tetrahydrofuran-3-yl)methoxy)-1H-pyrazol-4-yl)amino)spiro[cyclopropane-1,5′-pyrrolo[2,3-d]pyrimidin]-6′(7′H)-one]	7.5	0.061	≥ 10	≥ 10
CO[C@H]1C[C@H](Oc2n[nH]cc2Nc2ncc3c(n2)N([C@@H]2CCC[C@@H](O)C2)C(=O)C32CC2)C1 [Example 82, 7′-((1R,3R)-3-hydroxycyclohexyl)-2′-((3-((1r,3R)-3-methoxycyclobutoxy)-1H-pyrazol-4-yl)amino)spiro[cyclopropane-1,5′-pyrrolo[2,3-d]pyrimidin]-6′(7′H)-one]	2.53	0.026	≥ 10	≥ 10

Second part, the molecule after the results:

IC50 (CDK1/CyclinB1) [µM]	IC50 (CDK2/CyclinE1) [µM]	IC50 (CDK6/cyclinD3) [µM]	IC50 (CDK4/cyclinD1) [µM]	Structure (SMILES)
≥ 10	0.049	≥ 10	≥ 10	O=C1N([C@@H]2CCC[C@@H](O)C2)c2nc(Nc3c[nH]nc3-c3cnn4c3CCCC4)ncc2C12CC2 [Example 73, 7′-((1R,3R)-3-hydroxycyclohexyl)-2′-((3-(4,5,6,7-tetrahydropyrazolo[1,5-a]pyridin-3-yl)-1H-pyrazol-4-yl)amino)spiro[cyclopropane-1,5′-pyrrolo[2,3-d]pyrimidin]-6′(7′H)-one]
≥ 10	0.255	≥ 10	≥ 10	O=C1N([C@@H]2CCC[C@@H](O)C2)c2nc(Nc3c[nH]nc3OC3CCOCC3)ncc2C12CC2 [Example 74, 7′-((1R,3R)-3-hydroxycyclohexyl)-2′-((3-((tetrahydro-2H-pyran-4-yl)oxy)-1H-pyrazol-4-yl)amino)spiro[cyclopropane-1,5′-pyrrolo[2,3-d]pyrimidin]-6′(7′H)-one]
9.16	0.072	≥ 10	≥ 10	O=C1N([C@@H]2CCC[C@@H](O)C2)c2nc(Nc3c[nH]nc3OC[C@H]3COC[C@H]3F)ncc2C12CC2 [Example 75, 2′-((3-((-4-fluorotetrahydrofuran-3-yl)methoxy)-1H-pyrazol-4-yl)amino)-7′-((1R,3R)-3-hydroxycyclohexyl)spiro[cyclopropane-1,5′-pyrrolo[2,3-d]pyrimidin]-6′(7′H)-one]
3.29	0.032	≥ 10	7.27	O=C1N([C@@H]2CCC[C@@H](O)C2)c2nc(Nc3c[nH]nc3OCC3COCC3(F)F)ncc2C12CC2 (stereo partly drawn) [Example 76, 2′-((3-((4,4-difluorotetrahydrofuran-3-yl)methoxy)-1H-pyrazol-4-yl)amino)-7′-((1R,3R)-3-hydroxycyclohexyl)spiro[cyclopropane-1,5′-pyrrolo[2,3-d]pyrimidin]-6′(7′H)-one]
5.82	0.121	5.26	1.48	O=C1N([C@@H]2CCC[C@@H](O)C2)c2nc(Nc3c[nH]nc3O)ncc2C12CC2 [Example 77, 2′-((3-hydroxy-1H-pyrazol-4-yl)amino)-7′-((1R,3R)-3-hydroxycyclohexyl)spiro[cyclopropane-1,5′-pyrrolo[2,3-d]pyrimidin]-6′(7′H)-one]
2.54	0.017	3.54	2.6	O=C1N([C@@H]2CCC[C@@H](O)C2)c2nc(Nc3c[nH]nc3O[C@H]3CCOC3)ncc2C12CC2 [Example 78, 7′-((1R,3R)-3-hydroxycyclohexyl)-2′-((3-(((S)-tetrahydrofuran-3-yl)oxy)-1H-pyrazol-4-yl)amino)spiro[cyclopropane-1,5′-pyrrolo[2,3-d]pyrimidin]-6′(7′H)-one]
≥ 10	0.05	≥ 10	≥ 10	Cn1ccc(-c2n[nH]cc2Nc2ncc3c(n2)N([C@@H]2CCC[C@@H](O)C2)C(=O)C32CC2)n1 [Example 79, 7-((1R,3R)-3-hydroxycyclohexyl)-2′-((1′-methyl-1H,1′H-[3,3′-bipyrazol]-4-yl)amino)spiro[cyclopropane-1,5′-pyrrolo[2,3-d]pyrimidin]-6′(7′H)-one]
6.01	0.029	≥ 10	9.3	Cn1cc(-c2n[nH]cc2Nc2ncc3c(n2)N([C@@H]2CCC[C@@H](O)C2)C(=O)C32CC2)cn1 [Example 80, 7′-((1R,3R)-3-hydroxycyclohexyl)-2′-((1′-methyl-1H,1′H-[3,4′-bipyrazol]-4-yl)amino)spiro[cyclopropane-1,5′-pyrrolo[2,3-d]pyrimidin]-6′(7′H)-one]
0.41	0.006	≥ 10	≥ 10	O=C1N([C@@H]2CCC[C@@H](O)C2)c2nc(Nc3c[nH]nc3-c3cnn4cccnc34)ncc2C12CC2 [Example 81, 7′-((1R,3R)-3-hydroxycyclohexyl)-2′-((3-(pyrazolo[1,5-a]pyrimidin-3-yl)-1H-pyrazol-4-yl)amino)spiro[cyclopropane-1,5′-pyrrolo[2,3-d]pyrimidin]-6′(7′H)-one]
8.62	0.031	2.67	2.18	O=C1N([C@@H]2CCC[C@@H](O)C2)c2nc(Nc3c[nH]nc3-c3nnco3)ncc2C12CC2 [Example 83, 2′-((3-(1,3,4-oxadiazol-2-yl)-1H-pyrazol-4-yl)amino)-7′-((1R,3R)-3-hydroxycyclohexyl)spiro[cyclopropane-1,5′-pyrrolo[2,3-d]pyrimidin]-6′(7′H)-one]
